Here are results for 14 compounds from ChEMBL document CHEMBL5137021, “Organotropic dendrons with high potency as HIV-1, HIV-2 and EV-A71 cell entry inhibitors” (Eur J Med Chem, 2022).

A short description of series [1]: Cytotoxicity against human MT4 cells assessed as cell viability measured after 5 days by MTS assay. The following applies: time 5 day. Format: toxicity, cell-based. Background: Formazan colour is commonly taken as a measure of viable cells.
The nature of series [2]: Selectivity index, ratio of CC50 for human MT4 cells to EC50 for antiviral activity against HIV-1 NL4.3. It is filed as toxicity. The following applies: read-out: Ratio CC50/EC50.
Series [3] has as its system Human immunodeficiency virus 1. Kind of series: Antiviral activity against HIV1 NL4-3 infected in human MT4 cells assessed as protection against virus induced cytopatheic effect measured after 5 days by MTS assay. It is filed as functional, organism-based. The following applies: Human immunodeficiency virus 1, NL4-3, MT4, 120 h.
Series [4] concerns Human immunodeficiency virus 2. Kind of series: Antiviral activity against HIV2 ROD infected in human MT4 cells assessed as protection against virus induced cytopatheic effect measured after 5 days by MTS assay. Format: functional, organism-based. The following applies: Human immunodeficiency virus 2, ROD, MT4, 120 h.
The nature of series [5]: Cytotoxicity against human RD cells assessed as cell viability measured after 5 days by MTS assay. It is filed as toxicity, cell-based. The settings on record: time 5 day.
The subject of series [6] is Enterovirus A71. Kind of series: Antiviral activity against EV-A71 infected in RD cells assessed as protection against virus induced cytopatheic effect measured after 5 days by MTS assay. Format: functional, organism-based. The following applies: Enterovirus A, 120 h.
Series [7] can be described thus: Selectivity index, ratio of CC50 for human RD cells to EC50 for antiviral activity against EV-A71. Format: toxicity. The settings on record: read-out: Ratio CC50/EC50.
Series [8] deals with Enterovirus A71. Kind of series: Antiviral activity against EV-A71 genotype A BrCr infected in RD cells assessed as protection against virus induced cytopatheic effect measured after 5 days by MTS assay. Format: functional, organism-based. The settings on record: 120 h.
Series [9] concerns Enterovirus A71. Kind of series: Antiviral activity against Enterovirus A71 BrCr harboring VP1_S184T mutant infected in RD cells assessed as protection against virus induced cytopatheic effect measured after 5 days by MTS assay. Format: functional, organism-based.
Series [10] deals with Enterovirus A71. Kind of series: Antiviral activity against Enterovirus A71 BrCr harboring VP1_P246S mutant infected in RD cells assessed as protection against virus induced cytopatheic effect measured after 5 days by MTS assay. Format: functional, organism-based.
Series [11] relates to Enterovirus A71. Kind of series: Antiviral activity against Enterovirus A71 BrCr harboring VP1_S184T_P246S mutant infected in RD cells assessed as protection against virus induced cytopatheic effect measured after 5 days by MTS assay. It is filed as functional, organism-based.

On to `CN[C@@H]1[C@H](O[C@@H]2OC[C@@H](O)[C@H](O)[C@H]2O)[C@@H](O)[C@H](O[C@H]2c3cc(C)c(C(=O)N[C@H](C)C(=O)O)c(O)c3-c3c(cc4c(c3O)C(=O)c3cc(OC)cc(O)c3C4=O)[C@@H]2O)O[C@@H]1C` [PRADIMICIN A], for which the half-maximal cytotoxic concentration (CC50) at 120 h in series [1] is more than 100 µM. For the same compound, the selectivity ratio in series [2] was more than 30.

For the compound `O=C(CCC(CCC(=O)NC(Cc1c(-c2cc(C(=O)O)cc(C(=O)O)c2)[nH]c2ccccc12)C(=O)O)(CCC(=O)NC(Cc1c(-c2cc(C(=O)O)cc(C(=O)O)c2)[nH]c2ccccc12)C(=O)O)NC(=O)COCCOCCNc1ccc([N+](=O)[O-])cc1[N+](=O)[O-])NC(=O)Cc1c(-c2cc(C(=O)O)cc(C(=O)O)c2)[nH]c2ccccc12` (stereo not given), the CC50 at 120 h in series [1] and in [5] was more than 100 µM in each case. In addition, the EC50 is 8.39 µM in series [3], 0.56 µM in series [4] and 0.97 µM in the series on Enterovirus A71 [6]. The values for the selectivity ratio in series [2] and in [7] were more than 12 and more than 103, respectively.

Consider `O=C(CCC(CCC(=O)NC(Cc1c(-c2cc(C(=O)O)cc(C(=O)O)c2)[nH]c2ccccc12)C(=O)O)(CCC(=O)NC(Cc1c(-c2cc(C(=O)O)cc(C(=O)O)c2)[nH]c2ccccc12)C(=O)O)NC(=O)Nc1ccc2ccccc2c1)NC(Cc1c(-c2cc(C(=O)O)cc(C(=O)O)c2)[nH]c2ccccc12)C(=O)O` (stereo not given), for which the cytotoxic concentration (CC50) at 120 h in [1] is more than 100 µM; in series [5] it was more than 68 µM. Also, the concentration giving a half-maximal response (EC50) amounted to 0.38 µM in series [3], 0.22 µM in [4] and 0.97 µM in the series on Enterovirus A71 [6]. The selectivity ratio in series [2] was more than 263; in series [7], more than 70.

In the case of `NC(CCC(=O)NC(Cc1c(-c2cc(C(=O)O)cc(C(=O)O)c2)[nH]c2ccccc12)C(=O)O)(CCC(=O)NC(Cc1c(-c2cc(C(=O)O)cc(C(=O)O)c2)[nH]c2ccccc12)C(=O)O)CCC(=O)NC(Cc1c(-c2cc(C(=O)O)cc(C(=O)O)c2)[nH]c2ccccc12)C(=O)O` (stereo not given), the figures for the half-maximal cytotoxic concentration (CC50) at 120 h in series [1] and in [5] were more than 50 µM and more than 100 µM, respectively. Moreover, the values for the concentration giving a half-maximal response (EC50) (in [3]; in series [4]; in the series with Enterovirus A71 [6]) were 0.46 µM, 0.1 µM and 0.75 µM, respectively. For the same compound, the selectivity ratio is more than 109 in series [2] and more than 133 in series [7].

Regarding `O=C(CCC(CCC(=O)NC(Cc1c(-c2cc(C(=O)O)cc(C(=O)O)c2)[nH]c2ccccc12)C(=O)O)(CCC(=O)NC(Cc1c(-c2cc(C(=O)O)cc(C(=O)O)c2)[nH]c2ccccc12)C(=O)O)NC(=O)CCCCNC(=O)Nc1cc(C(=O)O)cc(C(=O)O)c1)NC(Cc1c(-c2cc(C(=O)O)cc(C(=O)O)c2)[nH]c2ccccc12)C(=O)O` (stereo not given), the CC50 at 120 h is more than 100 µM in [1] and more than 300 µM in series [5]. Further, the EC50 came out at 0.2 µM in series [3], 0.04 µM in series [4] and 0.15 µM with Enterovirus A71 [6]. Moreover, the selectivity ratio in series [2] was more than 500; in [7] it was more than 2000.

For the compound `CCOC(=O)c1ccc(OCCC2CCN(c3ccc(C)nn3)CC2)cc1` [PIRODAVIR], in series [5], the cytotoxic concentration (CC50) at 120 h is more than 100 µM. In addition, in [7], the selectivity ratio is more than 333.

Regarding `O=C(CCC(CCC(=O)NC(Cc1c(-c2cc(C(=O)O)cc(C(=O)O)c2)[nH]c2ccccc12)C(=O)O)(CCC(=O)NC(Cc1c(-c2cc(C(=O)O)cc(C(=O)O)c2)[nH]c2ccccc12)C(=O)O)NC(=O)CCCCNc1ccc([N+](=O)[O-])cc1[N+](=O)[O-])NC(Cc1c(-c2cc(C(=O)O)cc(C(=O)O)c2)[nH]c2ccccc12)C(=O)O` (stereo not given), the CC50 at 120 h in series [1] and in series [5] was more than 100 µM in each case. Also, the values for the concentration giving a half-maximal response (EC50) (in [3]; in [4]; in the series with Enterovirus A71 [6]) were 3.61 µM, 0.13 µM and 1.07 µM, respectively. In addition, the values for the selectivity ratio in series [2] and in [7] were more than 28 and more than 93, respectively.

In the case of `O=C(CCC(CCC(=O)NC(Cc1c(-c2cc(C(=O)O)cc(C(=O)O)c2)[nH]c2ccccc12)C(=O)O)(CCC(=O)NC(Cc1c(-c2cc(C(=O)O)cc(C(=O)O)c2)[nH]c2ccccc12)C(=O)O)NC(=O)Nc1cc(C(=O)O)cc(C(=O)O)c1)NC(Cc1c(-c2cc(C(=O)O)cc(C(=O)O)c2)[nH]c2ccccc12)C(=O)O` (stereo not given), the values for the CC50 at 120 h in [1] and in series [5] were more than 100 µM and more than 60 µM, respectively. The figures for the concentration for a half-maximal effect (EC50) (in series [3]; in series [4]; in the series on Enterovirus A71 [6]) were 0.29 µM, 0.09 µM and 0.4 µM, respectively. Also, the selectivity ratio in [2] is more than 345; in [7], more than 150.

In the case of `O=C(CCC(CCC(=O)NC(Cc1c(-c2cc(C(=O)O)cc(C(=O)O)c2)[nH]c2ccccc12)C(=O)O)(CCC(=O)NC(Cc1c(-c2cc(C(=O)O)cc(C(=O)O)c2)[nH]c2ccccc12)C(=O)O)NC(=O)CCCCCCNC(=O)c1cc(O)c2c(c1)C(=O)c1cccc(O)c1C2=O)NC(Cc1c(-c2cc(C(=O)O)cc(C(=O)O)c2)[nH]c2ccccc12)C(=O)O` (stereo not given), the CC50 at 120 h in series [1] and in series [5] was more than 100 µM in each case. For the same compound, the concentration for a half-maximal effect (EC50) was determined as 3.11 µM in series [3], 0.71 µM in [4] and 1.43 µM with Enterovirus A71 [6]. Moreover, the selectivity ratio in series [2] is more than 32; in series [7] it was more than 69.

As to `O=C(CCC(CCC(=O)NC(Cc1c(-c2cc(C(=O)O)cc(C(=O)O)c2)[nH]c2ccccc12)C(=O)O)(CCC(=O)NC(Cc1c(-c2cc(C(=O)O)cc(C(=O)O)c2)[nH]c2ccccc12)C(=O)O)NC(=O)Nc1ccc2c(c1)Cc1ccccc1-2)NC(Cc1c(-c2cc(C(=O)O)cc(C(=O)O)c2)[nH]c2ccccc12)C(=O)O` (stereo not given), the 50% cytotoxic concentration (CC50) at 120 h in series [1] and in [5] was more than 100 µM in each case. The concentration giving a half-maximal response (EC50) in [3] is 0.06 µM; in series [4], 0.05 µM; in the series on Enterovirus A71 [6] it was 0.25 µM. The selectivity ratio in series [2] was more than 1670; in series [7] it was more than 400.

Turning to `O=C(CCC(CCC(=O)NC(Cc1c(-c2cc(C(=O)O)cc(C(=O)O)c2)[nH]c2ccccc12)C(=O)O)(CCC(=O)NC(Cc1c(-c2cc(C(=O)O)cc(C(=O)O)c2)[nH]c2ccccc12)C(=O)O)[N+](=O)[O-])NC(Cc1c(-c2cc(C(=O)O)cc(C(=O)O)c2)[nH]c2ccccc12)C(=O)O` (stereo not given), the results for the CC50 at 120 h in series [1] and in series [5] were more than 100 µM and more than 75 µM, respectively. Moreover, the concentration for a half-maximal effect (EC50) in series [3] worked out at 0.27 µM; in [4], 0.63 µM; in the series with Enterovirus A71 [6], 0.35 µM; in the series on Enterovirus A71 [8], 0.353 µM; in the series with Enterovirus A71 [9], 2.3 µM; with Enterovirus A71 [10], 1.9 µM. Moreover, in the series on Enterovirus A71 [11], the EC50 came to 2.2 µM. The figures for the selectivity ratio in [2] and in series [7] were more than 370 and more than 103, respectively.

For `O=C(CCC(CCC(=O)NC(Cc1c(-c2cc(C(=O)O)cc(C(=O)O)c2)[nH]c2ccccc12)C(=O)O)(CCC(=O)NC(Cc1c(-c2cc(C(=O)O)cc(C(=O)O)c2)[nH]c2ccccc12)C(=O)O)NC(=O)CCCCCCCCCCNC(=O)Nc1cc(C(=O)O)cc(C(=O)O)c1)NC(Cc1c(-c2cc(C(=O)O)cc(C(=O)O)c2)[nH]c2ccccc12)C(=O)O` (stereo not given), the CC50 at 120 h in [1] and in series [5] was more than 100 µM each time. Also, the 50% effective concentration (EC50) in [3] turned out to be 3.99 µM; in [4] it was 0.96 µM; in the series on Enterovirus A71 [6], 1.38 µM. The figures for the selectivity ratio in series [2] and in series [7] were more than 25 and more than 72, respectively.

For `O=C(CCC(CCC(=O)N[C@@H](Cc1c[nH]c2ccccc12)C(=O)O)(CCC(=O)N[C@@H](Cc1c[nH]c2ccccc12)C(=O)O)NC(=O)CCOCC(COCCC(=O)NC(CCC(=O)N[C@@H](Cc1c[nH]c2ccccc12)C(=O)O)(CCC(=O)N[C@@H](Cc1c[nH]c2ccccc12)C(=O)O)CCC(=O)N[C@@H](Cc1c[nH]c2ccccc12)C(=O)O)(COCCC(=O)NC(CCC(=O)N[C@@H](Cc1c[nH]c2ccccc12)C(=O)O)(CCC(=O)N[C@@H](Cc1c[nH]c2ccccc12)C(=O)O)CCC(=O)N[C@@H](Cc1c[nH]c2ccccc12)C(=O)O)COCCC(=O)NC(CCC(=O)N[C@@H](Cc1c[nH]c2ccccc12)C(=O)O)(CCC(=O)N[C@@H](Cc1c[nH]c2ccccc12)C(=O)O)CCC(=O)N[C@@H](Cc1c[nH]c2ccccc12)C(=O)O)N[C@@H](Cc1cc2ccccc2[nH]1)C(=O)O`, the 50% cytotoxic concentration (CC50) at 120 h in series [1] is more than 100 µM; in [5], 25 µM. Also, the half-maximal effective concentration (EC50) amounted to 2.3 µM in [3]; 6.6 µM in [4]; 0.3 µM in the series with Enterovirus A71 [6]; 2 µM in the series on Enterovirus A71 [9]; 4.7 µM with Enterovirus A71 [10]; 8.9 µM with Enterovirus A71 [11]. The selectivity ratio in series [2] was more than 43; in [7], more than 203.

Take `O=C(CCC(CCC(=O)NC(Cc1c(-c2cc(C(=O)O)cc(C(=O)O)c2)[nH]c2ccccc12)C(=O)O)(CCC(=O)NC(Cc1c(-c2cc(C(=O)O)cc(C(=O)O)c2)[nH]c2ccccc12)C(=O)O)NC(=O)Nc1cccc(C(=O)O)c1)NC(Cc1c(-c2cc(C(=O)O)cc(C(=O)O)c2)[nH]c2ccccc12)C(=O)O` (stereo not given): the cytotoxic concentration (CC50) at 120 h in series [1] is more than 100 µM; in [5], more than 68 µM. The 50% effective concentration (EC50) was found to be 0.71 µM in series [3], 0.11 µM in series [4] and 0.48 µM in the series with Enterovirus A71 [6]. For the same compound, the selectivity ratio is more than 141 in series [2] and more than 142 in [7].

The term CC50 denotes the concentration at which the toxic effect on the cells reaches its halfway point. A word on the EC50: it is the concentration giving half of the maximal effect.
